Reference: publication PMC13427755 (Nature Communications, 2026)
Where a SMILES comes first, the peptide text is derived from it.

Experiments:
participants with IPF = test system: participants with IPF; set-up: species or system human; conditions: in vivo
Protocol: Safety and tolerability assessments were performed through treatment and follow-up and included evaluation of TEAEs, concomitant medications, physical examinations, vital signs, 12-lead ECGs, clinical laboratory assessments, spirometry, and cough symptoms using the validated LCQ[22] and a cough VAS. Spirometry was performed according to American Thoracic Society (ATS) / European Respiratory Society (ERS) Task Force guidelines[46] at all clinic visits, with assessments conducted both pre-and post-dose on study drug dosing days. Study staff monitored participants’ self-administration of the study drug (the morning dose) during on-site visits, and symptoms were monitored for at least 1h. […]
Exploratory biomarkers will be assessed in peripheral blood cells (as feasible), platelet rich plasma, BALF, BA samples, and deep bronchial brushings as outlined in Table 3. […]
LCQ total score is equal to the sum of the domain scores (total score range from 3 to 21) with a lower score indicating greater impairment of health status due to cough . […] If a response is not provided to a question, the domain score will be calculated as the average of the scores to the answered questions within the domain. If a subject responds to less than 80% of questions in a domain, the LCQ domain score will not be calculated and will be treated as missing during analysis. […]

[1] = test system: surfactant protein D (SP-D); assay: SP-D in plasma, MSD-ECL assay; assay type: in vivo, human; conditions: for SP-D in plasma, Δ from baseline, median (IQR): Day 14 minus screening, N = 8; for SP-D in plasma, median difference vs placebo (Hodges-Lehmann): N = 8 vs pooled placebo N = 5
Protocol: Blood samples for biomarker assessments in PBMCs and platelet-rich plasma were collected prior to the initial dose and on day 14 following the last dose. Following optimization for detection of analytes in IPF matrices, meso-scale discovery electrochemiluminescence (MSD-ECL) assays were performed at BioAgylitix for SP-D (#K1519XR-2, MSD) in plasma and AKT/pAKT (#K15100D-1, MSD) in PBMCs according to manufacturer’s instructions.
(§1) Descriptive statistics are reported as medians with interquartile ranges (IQR). The Hodges-Lehmann estimator was used for the median difference between groups (treatment minus placebo), with approximate 90% confidence intervals (asymmetric, exact level varied slightly with small n). Cliff’s delta was calculated as effect size using the formula δ = (2U / (n1 × n2)) − 1, with thresholds: |δ | <0.3 small effect, 0.3–0.5 medium effect, >0.5 large effect. […] No adjustment for multiplicity was performed, as these were pre-specified, hypothesis-driven exploratory analyses. All biomarker statistical analyses were conducted using GraphPad Prism Version v10.0.

[2] = test system: chemokine (C-X-C motif) ligand 7 (CXCL7); assay: CXCL7 ELISA in deep bronchial brushings (DBB); assay type: in vivo, human; conditions: for CXCL7 in DBB, Δ from baseline, median (IQR): Day 14 minus screening, N = 8; for CXCL7 in DBB, median difference vs placebo (Hodges-Lehmann): N = 8 vs pooled placebo N = 6
Excerpt: Bronchoscopists were instructed to obtain a total of 6 brushings from 3 of the basilar bronchial segments of the right lower lobe: the anterior basilar segment, the lateral basilar segment, and the posterior basilar segment. With the bronchoscope proximal to or within the orifice of the appropriate basilar segment, the brush sheath was to be passed out 5 cm beyond the subsegment orifice, and then the brush was fully extended an additional 1 cm for a total of 6 cm beyond the orifice of the subsegmental bronchus. At the desired depth, the sheath was to be gently pulled back and forward for 15 strokes to brush the small airways. The brushing process was repeated using any combination of the 3 basilar segments described above, at the discretion of the bronchoscopist, for a total of 6 six separate brush samples.
Protein isolation and preparation of DBB samples for ELISAs were performed as previously described[47] according to manufacturer’s instructions for COL1A1 (#ab210966, abcam), CXCL7 (#LS-F4967-1, LS Bio), GAL7 (#DY1339, R&D Systems), IL-11 (#DY218, R&D Systems), and TSLP (#DY1398, R&D Systems).
as §1

Sprague Dawley rats = conditions: 28-day GLP inhalation study, delivered doses 18.4, 58.5 and 109.3 mg/kg/day, ref Investigator Brochure (IB); cited from earlier work
Protocol: (§2) Pivotal 28-day Good Laboratory Practice (GLP) toxicity studies were performed in rats and dogs. These studies were designed such that the high dose levels would achieve at least a 50-fold margin over the proposed high clinical dose as recommended in International Council for Harmonisation (ICH)-M3(R2) guidelines.

dog = conditions: 28-day GLP study, delivered doses 8.9, 27.1 and 46.1 mg/kg/day, ref Investigator Brochure (IB); cited from earlier work
Protocol: as §2

[3] = protocol, section 1.1.1.1; cited from earlier work
Excerpt: […]. "Antifibrotic therapy for idiopathic pulmonary fibrosis: time to treat." Respiratory research 20.1 (2019) ...

With `CC(C)[C@H](NC(=O)[C@@H](NC(=O)[C@H](Cc1ccccc1)NC(=O)[C@@H](NC(=O)[C@@H](NC(=O)[C@@H](N)Cc1ccccc1)[C@@H](C)O)[C@@H](C)O)[C@@H](C)O)C(=O)N[C@H](C(=O)O)[C@@H](C)O` [LTI-03] (H-FTTFTVT-OH; N-terminus and C-terminus assumed) the “change in LCQ total score during the treatment period” value (participants with IPF) was “No clinically significant changes”, the “change in cough VAS during the treatment period” value (participants with IPF) was “No clinically significant changes” and the “SP-D in plasma, Δ from baseline, median (IQR)” value ([1]; 5 mg/day) was 3290 pg/mL. The “SP-D in plasma, median difference vs placebo (Hodges-Lehmann)” value ([1]; 5 mg/day, one-tailed Mann-Whitney p = 0.3108) was 3428 pg/mL, the “SP-D in plasma, Δ from baseline, median (IQR)” value ([1]; 10 mg/day) was -3264 pg/mL and the “SP-D in plasma, median difference vs placebo (Hodges-Lehmann)” value ([1]; 10 mg/day, one-tailed Mann-Whitney p = 0.1111) was -8368 pg/mL. The “decrease of plasma SP-D compared to placebo” value ([1]; 10 mg/day, baseline to Day 14, p = 0.1111, not statistically significant) was 5%, the “CXCL7 in DBB, Δ from baseline, median (IQR)” value ([2]; 5 mg/day) was −100.2 ng/mg protein and the “CXCL7 in DBB, median difference vs placebo (Hodges-Lehmann)” value ([2]; 5 mg/day, one-tailed Mann-Whitney p = 0.5) was 8.265 ng/mg protein. For the same compound, the “CXCL7 in DBB, Δ from baseline, median (IQR)” value ([2]; 10 mg/day) was −1276.23 ng/mg protein, the “CXCL7 in DBB, median difference vs placebo (Hodges-Lehmann)” value ([2]; 10 mg/day, one-tailed Mann-Whitney p = 0.0248) was −1262 ng/mg protein and the “no observed adverse effect level (NOAEL), achieved delivered dose” value (Sprague Dawley rats) was 109.3 mg/kg/day. For the same compound, the “no observed adverse effect level (NOAEL), achieved delivered dose” value (dog) was 46.1 mg/kg/day and the solubility in water [3] was “limited solubility”.
